Like-named read-outs stand apart in the source and are kept apart here.
Columns and labels:
[1] = target: human Adenosine A3 receptor (Homo sapiens (Human), UniProt P0DMS8); test: Adenosine receptor TR-FRET binding assay (A3); details: inhibition of binding of 100 nM CA200645, CHO cell membranes
How it was run: (§1)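 Ki values come from Cheng–Prusoff conversion of IC50s for displacement of fluorescent antagonist CA200645 from terbium-labelled human adenosine receptors in CHO membranes. Tracer was 30 nM at A2b and 100 nM at the other three subtypes; incubation lasted 2 h at room temperature.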

human PBMCs = test: CD3/CD28 stimulated IL-2 release NECA reversal assay in human PBMCs; format: cell-based; details: PBMC, 1 uM NECA, 24 hours, IL-2 in culture supernatant
Protocol: Biological Example—CD3/CD28 Stimulated IL-2 Release NECA Reversal Assay in Human PBMCs
Blood is drawn from healthy volunteers using sodium citrate as the anticoagulant (0.3% final concentration). After centrifugation of the blood over Histopaque-1077, PBMCs are collected from the Histopaque/plasma interface and washed twice in PBS (300 g for 10 mins at room temp). Cells are plated at 50,000 cells/well in 150 μl RPMI/10% FCS in 96-well cell culture plates that have been precoated with 1 ug/ml CD3 antibody. 50 μl diluted compound mix is added to the cells, to obtain final concentrations of 1 ug/ml CD28 antibody, 1 uM NECA and 0.003-10 μM adenosine receptor antagonist. Assay plates are incubated for 24 hours at 37° C. in a humidified incubator. Culture supernatant is tested for IL-2 levels using the human IL-2 Tissue Culture Kit (Meso Scale Discovery). Data for dose-response curves is calculated as % inhibition with 100% inhibition defined from no agonist control wells (+CD3/28-NECA)

[2] = target: human Adenosine A1 receptor (Homo sapiens (Human), UniProt P30542); test: Adenosine receptor TR-FRET binding assay (A1); details: inhibition of binding of 100 nM CA200645, CHO cell membranes
How it was run: as §1

[3] = system: CD8+T cells in human whole blood; test: Measurement of pCREB in CD8+T cells in human whole blood; format: cell-based; details: 3 μM NECA, rolipram
Protocol: Biological Example—Measurement of pCREB in CD8+T Cells in Human Whole Blood
Heparinised human whole blood was pre-incubated at 37° C. with serial dilutions of A2a antagonists for 20 min. and the phosphodiesterase inhibitor rolipram to amplify the pCREB response. The adenosine receptor agonist NECA is then added at a final concentration of 3 μM and following a 60 min incubation the blood is fixed and red blood cells lysed. White blood cells are isolated, permeabilized and stained with directly conjugated fluorescent antibodies to phospho-CREB (Alexa Fluor 488) and CD8 (Alexa Fluor 647) and the level of phospho-CREB in CD8+T cells is measured by FACS using a BD Accuri C6 Flow Cytometer.

[4] = target: human Adenosine A2a receptor (Homo sapiens (Human), UniProt P29274); test: Adenosine receptor TR-FRET binding assay (A2a); details: inhibition of binding of 100 nM CA200645, CHO cell membranes
How it was run: as §1

[5] = target: human Adenosine A2b receptor (Homo sapiens (Human), UniProt P29275); test: Adenosine receptor TR-FRET binding assay (A2b)
How it was run: as §1

[6] = TR-FRET, inhibition of binding of 30 nM CA200645, CHO cell membranes

Sequence of human Adenosine A2a receptor (P29274 whole entry): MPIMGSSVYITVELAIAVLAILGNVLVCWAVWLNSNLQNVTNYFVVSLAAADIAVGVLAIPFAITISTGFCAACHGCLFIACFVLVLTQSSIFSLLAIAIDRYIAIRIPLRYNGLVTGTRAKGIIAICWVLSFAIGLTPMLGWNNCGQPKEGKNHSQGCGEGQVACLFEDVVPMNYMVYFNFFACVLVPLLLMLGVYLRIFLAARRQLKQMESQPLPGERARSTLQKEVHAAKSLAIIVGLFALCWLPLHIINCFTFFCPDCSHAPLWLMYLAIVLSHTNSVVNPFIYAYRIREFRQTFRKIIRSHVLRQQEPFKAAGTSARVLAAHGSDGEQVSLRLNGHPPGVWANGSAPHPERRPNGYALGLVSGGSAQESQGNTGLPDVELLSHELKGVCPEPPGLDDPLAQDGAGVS
Sequence of human Adenosine A2b receptor (P29275 whole entry): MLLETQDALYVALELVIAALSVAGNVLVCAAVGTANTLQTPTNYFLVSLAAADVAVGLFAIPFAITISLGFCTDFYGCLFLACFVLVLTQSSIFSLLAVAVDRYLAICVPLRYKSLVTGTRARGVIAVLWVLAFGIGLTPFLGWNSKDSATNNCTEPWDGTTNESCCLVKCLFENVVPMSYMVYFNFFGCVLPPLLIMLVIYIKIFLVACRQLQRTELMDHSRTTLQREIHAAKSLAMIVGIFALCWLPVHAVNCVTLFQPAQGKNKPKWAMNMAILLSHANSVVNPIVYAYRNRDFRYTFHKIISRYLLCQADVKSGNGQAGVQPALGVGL
Sequence of human Adenosine A3 receptor (P0DMS8 whole entry): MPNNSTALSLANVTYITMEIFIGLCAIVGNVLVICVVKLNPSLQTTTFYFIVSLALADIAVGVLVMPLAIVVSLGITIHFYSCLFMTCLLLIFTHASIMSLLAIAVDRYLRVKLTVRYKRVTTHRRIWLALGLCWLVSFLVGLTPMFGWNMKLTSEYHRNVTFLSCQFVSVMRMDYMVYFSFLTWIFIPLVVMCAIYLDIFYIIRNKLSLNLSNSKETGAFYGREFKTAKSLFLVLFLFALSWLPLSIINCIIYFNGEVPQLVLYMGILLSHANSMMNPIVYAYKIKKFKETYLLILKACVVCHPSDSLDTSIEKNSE
Sequence of human Adenosine A1 receptor (P30542 whole entry): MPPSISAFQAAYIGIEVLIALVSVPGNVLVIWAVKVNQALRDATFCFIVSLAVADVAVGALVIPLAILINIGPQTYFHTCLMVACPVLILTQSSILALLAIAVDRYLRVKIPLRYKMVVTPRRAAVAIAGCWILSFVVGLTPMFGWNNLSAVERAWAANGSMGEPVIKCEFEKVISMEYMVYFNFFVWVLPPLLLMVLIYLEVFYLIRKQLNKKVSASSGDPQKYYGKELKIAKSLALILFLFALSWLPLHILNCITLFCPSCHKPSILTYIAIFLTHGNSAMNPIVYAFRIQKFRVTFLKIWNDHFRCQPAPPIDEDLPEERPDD

| Compound | Ki [1] [nM] | Ki [2] [nM] | IC50 [3] [nM] | Ki [4] [nM] | Ki [5, 6] [nM] | Ki [5] [nM] | IC50 (human PBMCs) [nM] |
| --- | --- | --- | --- | --- | --- | --- | --- |
| Cc1cc(-c2sc(NC(=O)N3CCC(C)(C#N)C3)nc2-c2cccc(C#N)c2)cc(C)n1 (racemic) [Example 27, 3-Cyano-N-[4-(3-cyanophenyl)-5-(2,6-dimethyl-4-pyridyl)thiazol-2-yl]-3-methyl-pyrrolidine-1-carboxamide] | 225 | 21 | 80 | 0.41 | 0.8 | – | 0.9 |
| Cc1cc(-c2sc(NC(=O)N3CCN(C)CC3)nc2-c2cccc(C#N)c2)cc(C)n1 [Example 4, N-[4-(3-Cyanophenyl)-5-(2,6-dimethyl-4-pyridyl)thiazol-2-yl]-4-methyl-piperazine-1-carboxamide] | 1000 | 60 | 130 | 1.01 | 0.7 | – | 3.8 |
| Cc1cc(-c2sc(NC(=O)N3CCS(=N)(=O)CC3)nc2-c2cccc(C#N)c2)cc(C)n1 [Example 4.2, N-[4-(3-Cyanophenyl)-5-(2,6-dimethyl-4-pyridyl)thiazol-2-yl]-1-imino-1-oxo-1,4-thiazinane-4-carboxamide] | 881 | 28 | 90 | 0.27 | 4.4 | – | 7.9 |
| Cc1cc(-c2sc(NC(=O)N3CCN(CCO)CC3)nc2-c2cccc(C#N)c2)cc(C)n1 [Example 4.3, N-[4-(3-Cyanophenyl)-5-(2,6-dimethyl-4-pyridyl)thiazol-2-yl]-4-(2-hydroxyethyl)piperazine-1-carboxamide] | 603 | 187 | 170 | 0.7 | 3.8 | – | 18.2 |
| Cc1cc(-c2sc(NC(=O)N3CCC(F)(C#N)CC3)nc2-c2cccc(C#N)c2)cc(C)n1 [Example 4.7, 4-Cyano-N-[4-(3-cyanophenyl)-5-(2,6-dimethyl-4-pyridyl)thiazol-2-yl]-4-fluoro-piperidine-1-carboxamide] | 125 | 6 | 90 | 0.05 | 1.3 | – | 0.8 |
| Cc1cc(-c2sc(NC(=O)N3CCN4CCOCC4C3)nc2-c2cccc(C#N)c2)cc(C)n1 (stereo not drawn) [Example 4.11, N-[4-(3-Cyanophenyl)-5-(2,6-dimethyl-4-pyridyl)thiazol-2-yl]-3,4,6,7,9,9a-hexahydro-1H-pyrazino[2,1-c][1,4]oxazine-8-carboxamide] | 482 | 225 | 220 | 1.3 | 4.7 | – | 3.8 |
| Cc1cc(-c2sc(NC(=O)N3CCN4C(=O)OCC4C3)nc2-c2cccc(C#N)c2)cc(C)n1 (stereo not drawn) [Example 6.13, N-[4-(3-Cyanophenyl)-5-(2,6-dimethyl-4-pyridyl)thiazol-2-yl]-3-oxo-5,6,8,8a-tetrahydro-1H-oxazolo[3,4-a]pyrazine-7-carboxamide] | – | 23 | 140 | 0.4 | 3.4 | – | 3.7 |
| Cc1cc(-c2sc(NC(=O)N3CC(C)(O)C3)nc2-c2cccc(C#N)c2)c(F)c(C)n1 [Example 6.67, N-[4-(3-Cyanophenyl)-5-(3-fluoro-2,6-dimethyl-4-pyridyl)thiazol-2-yl]-3-hydroxy-3-methyl-azetidine-1-carboxamide] | – | – | 250 | – | – | – | 10.6 |

More lines, main results first:

| Ki [1] [nM] | Ki [2] [nM] | IC50 [3] [nM] | Ki [4] [nM] | Ki [5, 6] [nM] | Ki [5] [nM] | Compound | IC50 (human PBMCs) [nM] |
| --- | --- | --- | --- | --- | --- | --- | --- |
| 849 | 234 | 280 | 0.4 | 1 | – | Cc1cc(-c2sc(NC(=O)N3CCC(C(C)(C)O)C3)nc2-c2cccc(C#N)c2)cc(Cl)n1 (stereo not drawn) [Example 2, N-[5-(2-Chloro-6-methyl-4-pyridyl)-4-(3-cyanophenyl)thiazol-2-yl]-3-(1-hydroxy-1-methyl-ethyl)pyrrolidine-1-carboxamide] | 2 |
| 267 | 94 | 1770 | 3.11 | 6.6 | – | Cc1cc(-c2sc(NC(=O)N3CCNCC3)nc2-c2cccc(C#N)c2)cc(Cl)n1 [Example 3.1] | 13 |
| 382 | 14 | 290 | 0.2 | 1.1 | – | Cc1cc(-c2sc(NC(=O)N3CCC(C)(O)CC3)nc2-c2cccc(C#N)c2)cc(Cl)n1 [Example 3.7] | 3.3 |
| 338 | 81 | 470 | 0.49 | 2.2 | – | Cc1cc(-c2sc(NC(=O)N3CCN[C@H](C(C)(C)O)C3)nc2-c2cccc(C#N)c2)cc(Cl)n1 [Example 3.9] | 17.9 |
| 1300 | 102 | 670 | 0.52 | 1.2 | – | Cc1cc(-c2sc(NC(=O)N3CCN(C4COC4)CC3)nc2-c2cccc(C#N)c2)cc(Cl)n1 [Example 3.11] | 10.4 |
| 531 | 18 | 600 | 0.25 | 1 | – | Cc1cc(-c2sc(NC(=O)N3CCS(=N)(=O)CC3)nc2-c2cccc(C#N)c2)cc(Cl)n1 [Example 3.12] | 8 |
| 94 | 16 | 160 | 1.54 | 1.4 | – | Cc1cc(-c2sc(NC(=O)N3CC[C@H](O)C3)nc2-c2cccc(C#N)c2)cc(C)n1 [Example 4.5, (3S)-N-[4-(3-Cyanophenyl)-5-(2,6-dimethyl-4-pyridyl)thiazol-2-yl]-3-hydroxy-pyrrolidine-1-carboxamide] | 8.5 |
| 157 | 50 | 100 | 0.38 | 2.5 | – | Cc1cc(-c2sc(NC(=O)N3CC[C@@H](C#N)C3)nc2-c2cccc(C#N)c2)cc(C)n1 [Example 4.10, (3R)-3-Cyano-N-[4-(3-cyanophenyl)-5-(2,6-dimethyl-4-pyridyl)thiazol-2-yl]pyrrolidine-1-carboxamide] | 2.9 |
| 228 | – | 150 | 1.05 | 2.1 | – | Cc1cc(-c2sc(NC(=O)N3CC[C@H](S(C)(=O)=O)C3)nc2-c2cccc(C#N)c2)cc(C)n1 [Example 6.1, (3S)-N-[4-(3-Cyanophenyl)-5-(2,6-dimethyl-4-pyridyl)thiazol-2-yl]-3-methylsulfonyl-pyrrolidine-1-carboxamide] | 3.6 |
| 412 | – | 160 | 0.88 | – | 0.7 | Cc1cc(-c2sc(NC(=O)N3CC[C@@H](S(C)(=O)=O)C3)nc2-c2cccc(C#N)c2)cc(C)n1 [Example 6.9, (3R)-N-[4-(3-Cyanophenyl)-5-(2,6-dimethyl-4-pyridyl)thiazol-2-yl]-3-methylsulfonyl-pyrrolidine-1-carboxamide] | 4.3 |
| – | 38 | 80 | 0.37 | – | 2.5 | Cc1cc(-c2sc(NC(=O)N3CCOC(C(C)(C)O)C3)nc2-c2cccc(C#N)c2)cc(C)n1 (stereo not drawn) [Example 6.47, N-[4-(3-Cyanophenyl)-5-(2,6-dimethyl-4-pyridyl)thiazol-2-yl]-2-(1-hydroxy-1-methyl-ethyl)morpholine-4-carboxamide] | 1.9 |
| – | – | 200 | – | – | – | Cc1cc(-c2sc(NC(=O)N3CC[C@H]3CO)nc2-c2cccc(C#N)c2)cc(C)n1 [Example 6.73, (2S)-N-[4-(3-Cyanophenyl)-5-(2,6-dimethyl-4-pyridyl)thiazol-2-yl]-2-(hydroxymethyl)azetidine-1-carboxamide] | 13.5 |
